{"source": "patent US20250270170A1", "about": "“2,3-DIMETHOXY-5-METHYL-1,4-BENZOQUINONE ALKYL ALCOHOL DERIVATIVE AND USE THEREOF” (BEIJING ANJIANXI BIO-MEDICAL TECHNOLOGY CO., LTD., priority 2021, published 2025)", "key": {"[1]": {"test_system": "cisplatin-induced acute kidney damage in mice", "assay": "Example 11: kidney weight and kidney coefficient in cisplatin-induced acute kidney damage model", "assay_type": "in vivo, C57BL/6J mice", "conditions": "for Kidney coefficient (kidney weight/body weight), x (mean) / Kidney weight after the assay, x (mean): group mean", "procedure": "42 male C57BL/6J mice (age: 6 to 8 weeks, body weight 18-20 g, certificate number: 11400700238365) were purchased from Si Pei Fu (Beijing) Biotechnology Co., Ltd., and raised in an SPF-grade animal room of the Institute of Materia Medica, Chinese Academy of Medical Sciences, at a temperature of 20 to 25° C., a relative humidity of 40% to 70%, and a cycle of 12 hours of light and 12 hours of dark. The animals had free access to water and food. After 3 days of normal feeding, mice with good physical conditions after the veterinary examination were selected for this assay. Before grouping, a marker was used to mark on the base of the animals' tail. After grouping, each animal was marked with an ear cutout (7 mice in each group).\nAssay animals: 42 7-week-old male C57 mice were used for animal testing after an adaptive feeding.\nGroup 1: blank control group;\nThe preparation of the R01 formulation administration test solution was the same as that in Example 5: an appropriate amount of the R01 formulation was weighed according to the three dosages set in the assay, respectively, and an appropriate volume of 0.5% CMC-Na aqueous solution was added. The mixture was vortexed and sonicated until mixed evenly, to give the administration test solutions with concentrations of […], respectively, which were ready for use.\nAnimal testing period: 7 days (excluding adaptive feeding), hereinafter referred to as: D1-D7.\n1. The first group was a solvent control group: N=7, all mice were males (the same below); • a) 0.5% solution of sodium carboxymethyl cellulose was gavagely administered from D1 to D6 (twice a day for each animal, with an interval of 8 hours between the morning and the afternoon). • b) Physiological saline was intraperitoneally injected in one-time on D4. • c) On D7, blood was collected from the orbit for euthanasia (300 ul of serum was extracted), the left kidney was fixed in formaldehyde, and the right kidney was preserved in liquid nitrogen (WB study may be carried out).\n3) Each animal was weighed before euthanasia, and the weight was recorded. Two kidneys were weighed as soon as possible after euthanasia, and the weight was recorded. Then, the two kidneys were quickly fixed or cryopreserved, and the kidney coefficient of the mouse was calculated (kidney weight/mouse weight).\nThe body weight of the animals when being grouped for administration in each group was recorded. The body weight and the kidney weight at the end of the assay were also recorded, and the kidney coefficient was calculated. The creatinine and urea nitrogen values in the blood samples sent for testing were recorded. The kidneys were stained with HE and PAS, and the slides were scanned. A report was issued after the pathological analysis.\nThe assay data were calculated and processed statistically using Microsoft Office Excel 2007 software. Unless otherwise specified, the data were expressed as mean±standard error (Mean±SE), and t-test was used for comparison between two groups."}, "NCI-H460 cells": {"test_system": "NCI-H460 cells", "assay": "CCK-8 cell proliferation assay, NCI-H460", "assay_type": "cell-based", "conditions": "Homo sapiens", "procedure": "(1) Cells in the logarithmic growth phase were taken and digested to make a cell suspension. 20 μl of the cell suspension was taken with a pipette, and added to a CountStar disposable cell counting plate for cell counting, and the counting results were recorded. The cell concentration was adjusted to 30,000 to 40,000 cells/ml (note: different cells have different growth rates, so the number of cells in each well was slightly different).\n(2) A 96-well plate was taken. Since the wells in the outermost circle of the culture plate were easy to evaporate and dry, causing inaccurate volumes, and increasing errors, 100 μl of PBS was added to the wells in the outermost circle, which were not used as assay wells.\n(3) The adjusted cell suspension was added to the 96-well plate, with 100 μl in each well, resulting approximately 3000 to 4000 cells in each well. The plate was placed in a 37° C. incubator under the condition of 5% CO2 for cell culture, and the drug was added when the cells adhered to the wall.\n(4) Drug dilution. The concentration gradient was set as: 0 μM, 10 μM, 50 μM, 100 μM, and 200 μM, with 3 duplicates for each concentration. In addition, blank control wells containing only culture medium and drug without cells were also set.\n(5) The plate was incubated in the incubator for 24 h, 48 h and 72 h, respectively. After reaching the set time point, the 96-well plate was taken out from the incubator, and 10 μl of CCK-8 reagent was added to each well, taking care to avoid bubbles. The plate was shaked to mix evenly, and put back into the incubator to culture for another 2 hours.\n(6) To detect the absorbance, the 96-well plate was placed in a […], and the absorbance value (OD value) at 450 nm was detected. The data was recorded. Cell viability=(OD value of the assay well−OD value of the blank control well)/(OD value of the solvent control well−OD value of the blank control well)×100%.\n(7) The data was imported into GraphPad Prism5 for plotting. The IC50 values were calculated, and the curves were drawn."}, "[2]": {"conditions": "individual animals No. 1-7, cisplatin model, R01 6 mg/kg, listed as R01, 6 mg/kg"}, "[3]": {"conditions": "individual animals No. 1-7, cisplatin model, R01 18 mg/kg, listed as R01, 18 mg/kg"}, "[4]": {"conditions": "individual animals No. 1-7, cisplatin model, R01 36 mg/kg, listed as R01, 36 mg/kg"}}, "note": "Where “and” joins values, the source holds several entries; their conditions need not be identical. Equal entries are not always repeated."}
{"smiles": "COC1=C(OC)C(=O)C(CCCCCCCCCCOC(=O)Cc2c(C)n(C(=O)c3ccc(Cl)cc3)c3ccc(OC)cc23)=C(C)C1=O", "note": "[compound of formula (I)]", "values": [{"measurement": "Kidney coefficient (kidney weight/body weight), x (mean)", "setting": "[1]; cisplatin model, R01 6 mg/kg", "result": 0.014}, {"measurement": "Kidney weight after the assay, x (mean)", "setting": "[1]; cisplatin model, R01 6 mg/kg", "result": 0.223, "unit": "g"}, {"measurement": "Kidney coefficient (kidney weight/body weight), x (mean)", "setting": "[1]; cisplatin model, R01 18 mg/kg", "result": 0.013}, {"measurement": "Kidney weight after the assay, x (mean)", "setting": "[1]; cisplatin model, R01 18 mg/kg", "result": 0.211, "unit": "g"}, {"measurement": "Kidney coefficient (kidney weight/body weight), x (mean)", "setting": "[1]; cisplatin model, R01 36 mg/kg", "result": 0.013}, {"measurement": "Kidney weight after the assay, x (mean)", "setting": "[1]; cisplatin model, R01 36 mg/kg", "result": 0.207, "unit": "g"}, {"measurement": "Kidney coefficient (kidney weight/body weight)", "setting": "[1]; [2]", "result": "0.013 (3×) and 0.015 and 0.014 (2×) and 0.018"}, {"measurement": "Kidney weight after the assay", "setting": "[1]; [2]", "result": "0.207 g and 0.212 g and 0.209 g and 0.224 g and 0.228 g and 0.214 g and 0.270 g"}, {"measurement": "Kidney coefficient (kidney weight/body weight)", "setting": "[1]; [3]", "result": "0.014 (3×) and 0.013 (4×)"}, {"measurement": "Kidney weight after the assay", "setting": "[1]; [3]", "result": "0.214 g and 0.211 g (2×) and 0.206 g and 0.215 g and 0.210 g and 0.213 g"}, {"measurement": "Kidney coefficient (kidney weight/body weight)", "setting": "[1]; [4]", "result": "0.012 and 0.014 (4×) and 0.013 (2×)"}, {"measurement": "Kidney weight after the assay", "setting": "[1]; [4]", "result": "0.192 g and 0.216 g and 0.203 g and 0.228 g and 0.213 g and 0.189 g and 0.206 g"}, {"measurement": "Kidney coefficient (kidney weight/body weight)", "setting": "[1]; with cisplatin 10 mg/kg, amifostine 50 mg/kg i.p., R01 6, 18, 36 mg/kg bid", "result": "equivalent to that of the blank control group"}, {"measurement": "IC50", "setting": "NCI-H460 cells; 24 h", "result": "125.3 ± 1.01", "unit": "µM"}, {"measurement": "IC50", "setting": "NCI-H460 cells; 48 h", "result": "66.4 ± 0.87", "unit": "µM"}, {"measurement": "IC50", "setting": "NCI-H460 cells; 72 h", "result": "48.5 ± 1.12", "unit": "µM"}]}
